# Source: PubChem BioAssay (NCI)
#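 Method: 48-hour compound exposure of cells in 96-well plates, five concentrations, linear interpolation of endpoints. GI50 marks 50% less growth. Definition used: TGI = concentration required for complete inhibition of growth.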
# What was measured:
# Assay in all cases: NCI tumour cell line growth inhibition, 48 h
# LXFL 529 NSCLC = test system: LXFL 529 NSCLC
# DLD-1 colon = test system: DLD-1 colon
# HOP-18 NSCLC = test system: HOP-18 NSCLC
# DMS 114 small cell lung = test system: DMS 114 small cell lung
# NCI/ADR-RES ovarian = test system: NCI/ADR-RES ovarian
# BT-549 breast = test system: BT-549 breast
# MDA-MB-435 = test system: MDA-MB-435
# P388/ADR leukemia = test system: P388/ADR leukemia
# MDA-N = test system: MDA-N
# DU-145 prostate = test system: DU-145 prostate
# SN12K1 renal = test system: SN12K1 renal
smiles,measurement,setting,value
CCO[C@@H]1C2C=CC(C2)[C@H]1[N+](=O)[O-] (some centres not stated),TGI,LXFL 529 NSCLC,> 100 µM
same,TGI,DLD-1 colon,> 100 µM
same,TGI,HOP-18 NSCLC,> 100 µM
same,TGI,DMS 114 small cell lung,> 100 µM
CC(=O)NC(CCCN(Cc1ccccc1)C(=O)N(CCCl)N=O)C(=O)NCc1ccccc1 (configuration not stated),TGI,LXFL 529 NSCLC,> 100 µM
same,TGI,DLD-1 colon,> 100 µM
same,TGI,HOP-18 NSCLC,> 100 µM
same,TGI,DMS 114 small cell lung,> 100 µM
CN(C)c1ccc(N=Nc2c([O-])ccc3ccccc23)cc1.[C-]#[O+].[C-]#[O+].[Ir],GI50,NCI/ADR-RES ovarian,19.3 µM
same,TGI,NCI/ADR-RES ovarian,57.7 µM
same,GI50,BT-549 breast,19.6 µM
same,TGI,BT-549 breast,56.7 µM
same,GI50,LXFL 529 NSCLC,17.2 µM
same,TGI,LXFL 529 NSCLC,31.2 µM
same,GI50,DLD-1 colon,22.5 µM
same,TGI,DLD-1 colon,47.8 µM
same,GI50,MDA-MB-435,18.8 µM
same,TGI,MDA-MB-435,46.1 µM
same,GI50,HOP-18 NSCLC,17.2 µM
same,TGI,HOP-18 NSCLC,37.2 µM
same,GI50,DMS 114 small cell lung,20.6 µM
same,TGI,DMS 114 small cell lung,36 µM
COc1ccc2cc3n(c2c1)CCc1cc(OC)c(OC)cc1-3,TGI,LXFL 529 NSCLC,> 100 µM
same,TGI,DLD-1 colon,> 100 µM
same,TGI,HOP-18 NSCLC,> 100 µM
same,TGI,DMS 114 small cell lung,> 100 µM
COC(=O)C(=O)C(C(=O)C=C(C)C)C(=O)C(=O)Nc1cccc(C(C)=O)c1 (configuration not stated),TGI,LXFL 529 NSCLC,> 100 µM
same,TGI,DLD-1 colon,> 100 µM
same,TGI,HOP-18 NSCLC,> 100 µM
same,TGI,DMS 114 small cell lung,> 100 µM
O=C1C(=O)N(C2C3CC4CC(C3)CC2C4)C(=O)C(=O)C1c1nc2ccccc2o1 (configuration not stated),TGI,LXFL 529 NSCLC,> 100 µM
same,TGI,DLD-1 colon,92.9 µM
same,TGI,HOP-18 NSCLC,> 100 µM
same,TGI,DMS 114 small cell lung,44.7 µM
N/N=C(\Cc1ccccc1)NN=C(N)N,TGI,LXFL 529 NSCLC,> 100 µM
same,TGI,DLD-1 colon,> 100 µM
same,TGI,HOP-18 NSCLC,> 100 µM
COC(=O)C(Cc1nc2ccc(Cl)cc2[nH]c1=O)C(=O)C(=O)Nc1ccccc1[N+](=O)[O-] (configuration not stated),TGI,LXFL 529 NSCLC,> 100 µM
same,TGI,DLD-1 colon,> 100 µM
same,TGI,HOP-18 NSCLC,> 100 µM
same,TGI,DMS 114 small cell lung,> 100 µM
CCCCCCCCCCCCC(=O)[O-].CCCCCCCCCCCCC(=O)[O-].CCCCCCCCCCCCC(=O)[O-].CCCCCCCCCCCCC(=O)[O-].[Mo+2].[Mo+2],GI50,LXFL 529 NSCLC,10.7 µM
same,TGI,LXFL 529 NSCLC,22.8 µM
same,GI50,DLD-1 colon,7.9 µM
same,TGI,DLD-1 colon,23.3 µM
same,GI50,HOP-18 NSCLC,20.6 µM
same,TGI,HOP-18 NSCLC,34.9 µM
same,GI50,DMS 114 small cell lung,6.62 µM
same,TGI,DMS 114 small cell lung,26 µM
CC(=O)Oc1ccccc1C(=O)C1c2cccc(O)c2C(=O)c2c(O)cccc21,TGI,LXFL 529 NSCLC,4.03 µM
same,TGI,DLD-1 colon,12.2 µM
same,TGI,HOP-18 NSCLC,4.87 µM
same,TGI,DMS 114 small cell lung,1.28 µM
Cc1cccc(C(C)(C)C)c1NC(=O)C(=O)C(c1cnc2ccccc2n1)[N+](=O)[O-] (configuration not stated),TGI,LXFL 529 NSCLC,> 100 µM
same,TGI,DLD-1 colon,> 100 µM
same,TGI,HOP-18 NSCLC,> 100 µM
same,TGI,DMS 114 small cell lung,> 100 µM
CCOC(=O)/C(C#N)=C1\N[C@H](C(=O)OCC)CO1,TGI,LXFL 529 NSCLC,> 100 µM
same,TGI,DLD-1 colon,> 100 µM
same,TGI,HOP-18 NSCLC,> 100 µM
O=C1CC2C(=O)N(Cc3ccccc3)C1C(S(=O)(=O)c1ccccc1)C2S(=O)(=O)c1ccccc1 (configuration not stated),TGI,LXFL 529 NSCLC,2.61 µM
same,TGI,DLD-1 colon,3.13 µM
same,TGI,HOP-18 NSCLC,13.8 µM
same,TGI,DMS 114 small cell lung,2.72 µM
COc1ccc2c(C(=O)O)cc3cc(OC)c(OC)cc3c2c1,TGI,LXFL 529 NSCLC,> 100 µM
same,TGI,DLD-1 colon,> 100 µM
same,TGI,HOP-18 NSCLC,> 100 µM
O=c1[nH]cc(OCC(F)(F)F)c(=O)[nH]1,TGI,LXFL 529 NSCLC,> 100 µM
same,TGI,DLD-1 colon,> 100 µM
same,TGI,HOP-18 NSCLC,> 100 µM
same,TGI,DMS 114 small cell lung,> 100 µM
CCSc1nc(COC(=O)NC)c(COC(=O)NC)n1C,TGI,NCI/ADR-RES ovarian,> 100 µM
same,TGI,BT-549 breast,> 100 µM
same,TGI,LXFL 529 NSCLC,> 54.8 µM
same,TGI,DLD-1 colon,> 100 µM
same,TGI,P388/ADR leukemia,> 100 µM
same,TGI,MDA-MB-435,> 100 µM
same,TGI,HOP-18 NSCLC,> 100 µM
same,TGI,MDA-N,> 100 µM
same,TGI,DMS 114 small cell lung,> 76.2 µM
same,TGI,DU-145 prostate,> 23.2 µM
same,TGI,SN12K1 renal,> 100 µM
CCOC(=O)N1C2C=C(C)C(C3C(C)C(=O)N31)N(C(=O)c1ccccc1)O2 (configuration not stated),TGI,LXFL 529 NSCLC,> 100 µM
same,TGI,DLD-1 colon,> 100 µM
same,TGI,HOP-18 NSCLC,> 100 µM
same,TGI,DMS 114 small cell lung,> 100 µM
CN(C)C(=O)C1CCC(=C2C(=O)OC(C)(C)OC2=O)N1C (configuration not stated),TGI,LXFL 529 NSCLC,> 100 µM
same,TGI,DLD-1 colon,> 100 µM
same,TGI,HOP-18 NSCLC,> 100 µM
same,TGI,DMS 114 small cell lung,> 100 µM
Clc1ccc(CN2COc3c(cc(Cl)c4cccnc34)C2)cc1,TGI,LXFL 529 NSCLC,2.71 µM
same,TGI,DLD-1 colon,13.6 µM
same,TGI,HOP-18 NSCLC,16.4 µM
same,TGI,DMS 114 small cell lung,3.73 µM
Cc1cccc(C)c1NC(=O)CCCC(=O)C1CCC/C1=N\NC(=O)C(=O)NN (configuration not stated),TGI,LXFL 529 NSCLC,> 100 µM
same,TGI,DLD-1 colon,> 100 µM
same,TGI,HOP-18 NSCLC,> 100 µM
same,TGI,DMS 114 small cell lung,> 100 µM
CCC1CN2CCc3cc(OC)c(OC)cc3C2CC1CC1c2cc(OC)c(OC)cc2CCN1C(=O)CNC(=O)OC(C)(C)C (configuration not stated),TGI,LXFL 529 NSCLC,36.2 µM
same,TGI,DLD-1 colon,36.9 µM
same,TGI,HOP-18 NSCLC,70.7 µM
same,TGI,DMS 114 small cell lung,20 µM
